According to PubChem BioAssay (NCI):
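All cell lines were grown in 96-well plates and treated with compound for 48 hours. Definition used: TGI = concentration required for complete inhibition of growth.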

Assays:
Test in all cases: NCI anticancer screen, dose series, 48 h
[1] = system: 786-0 renal
[2] = system: A549 NSCLC
[3] = system: ACHN renal
[4] = system: CAKI-1 renal
[5] = system: CCRF-CEM leukemia
[6] = system: COLO 205 colon
[7] = system: DU-145 prostate
[8] = system: EKVX NSCLC
[9] = system: HCC-2998 colon
[10] = system: HCT-116 colon
[11] = system: HCT-15 colon
[12] = system: HL-60(TB) leukemia
[13] = system: HOP-62 NSCLC
[14] = system: HOP-92 NSCLC
[15] = system: HS 578T breast
[16] = system: HT29 colon
[17] = system: IGROV1 ovarian
[18] = system: K-562 leukemia
[19] = system: KM12 colon
[20] = system: LOX IMVI melanoma
[21] = system: M14 melanoma
[22] = system: MALME-3M melanoma
[23] = system: MCF7 breast
[24] = system: MDA-MB-231 breast
[25] = system: MDA-MB-435
[26] = system: MDA-N
[27] = system: MOLT-4 leukemia
[28] = system: NCI-H226 lung
[29] = system: NCI-H23 lung
[30] = system: NCI-H460 lung
[31] = system: NCI/ADR-RES ovarian
[32] = system: OVCAR-3 ovarian
[33] = system: OVCAR-4 ovarian
[34] = system: OVCAR-5 ovarian
[35] = system: OVCAR-8 ovarian
[36] = system: PC-3 prostate
[37] = system: RPMI-8226 leukemia
[38] = system: RXF 393 renal
[39] = system: SF-268 CNS
[40] = system: SF-295 CNS
[41] = system: SF-539 CNS
[42] = system: SK-MEL-2 melanoma
[43] = system: SK-MEL-28 melanoma
[44] = system: SK-MEL-5 melanoma
[45] = system: SK-OV-3 ovarian
[46] = system: SN12C renal
[47] = system: SNB-19 CNS
[48] = system: SNB-75 CNS
[49] = system: SR leukemia
[50] = system: SW-620 colon
[51] = system: T-47D breast
[52] = system: TK-10 renal
[53] = system: U251 CNS
[54] = system: UACC-257 melanoma
[55] = system: UACC-62 melanoma
[56] = system: UO-31 renal
[57] = system: A498 renal
[58] = system: BT-549 breast
[59] = system: NCI-H522 lung

O=[N+]([O-])c1ccc2c(c1)N([O-])C1(CCCCC1)[N+]2=O
TGI [1]: 24.6 µM
TGI [2]: 37 µM
TGI [3]: 33.8 µM
TGI [4]: 34.9 µM
TGI [5]: > 100 µM
TGI [6]: 27.1 µM
TGI [7]: 33.9 µM
TGI [8]: 29.6 µM
TGI [9]: 32.8 µM
TGI [10]: 33.3 µM
TGI [11]: 39.4 µM
TGI [12]: > 100 µM
TGI [13]: 31 µM
TGI [14]: 29.1 µM
TGI [15]: 47.9 µM
TGI [16]: 43.3 µM
TGI [17]: 36.9 µM
TGI [18]: > 100 µM
TGI [19]: 42.4 µM
TGI [20]: 42.2 µM
TGI [21]: 30.5 µM
TGI [22]: 28.7 µM
TGI [23]: 36.6 µM
TGI [24]: 34.4 µM
TGI [25]: 30.9 µM
TGI [26]: 31.8 µM
TGI [27]: 51.9 µM
TGI [28]: 37.4 µM
TGI [29]: 66.3 µM
TGI [30]: 37 µM
TGI [31]: 77.7 µM
TGI [32]: 51 µM
TGI [33]: 23.7 µM
TGI [34]: 34.7 µM
TGI [35]: 42.6 µM
TGI [36]: 31.2 µM
TGI [37]: 65 µM
TGI [38]: 32.4 µM
TGI [39]: 69.4 µM
TGI [40]: 34 µM
TGI [41]: 33.6 µM
TGI [42]: 52.1 µM
TGI [43]: 34.5 µM
TGI [44]: 28.9 µM
TGI [45]: 44.2 µM
TGI [46]: 35.1 µM
TGI [47]: > 100 µM
TGI [48]: 33.2 µM
TGI [49]: 51.5 µM
TGI [50]: 56 µM
TGI [51]: 64.7 µM
TGI [52]: 26.2 µM
TGI [53]: 32.3 µM
TGI [54]: 29.4 µM
TGI [55]: 37.1 µM
TGI [56]: 33.7 µM

Clc1ccc(C2=NN=C3C(c4ccccc4)=Nc4ccccc4N3C2)cc1
TGI [1]: > 100 µM
TGI [57]: > 100 µM
TGI [2]: > 100 µM
TGI [3]: > 100 µM
TGI [58]: > 100 µM
TGI [4]: > 100 µM
TGI [5]: 15.2 µM
TGI [6]: > 100 µM
TGI [7]: > 41.9 µM
TGI [8]: > 27.1 µM
TGI [9]: > 100 µM
TGI [10]: > 100 µM
TGI [11]: > 100 µM
TGI [12]: 17.6 µM
TGI [13]: > 100 µM
TGI [14]: > 93.2 µM
TGI [15]: 31.6 µM
TGI [16]: > 25.8 µM
TGI [17]: > 100 µM
TGI [18]: > 100 µM
TGI [19]: > 100 µM
TGI [20]: > 100 µM
TGI [21]: > 25.8 µM
TGI [22]: > 82 µM
TGI [23]: > 100 µM
TGI [24]: > 100 µM
TGI [25]: > 100 µM
TGI [26]: > 100 µM
TGI [27]: > 23.2 µM
TGI [28]: > 100 µM
TGI [29]: > 100 µM
TGI [59]: 8.17 µM
TGI [31]: > 100 µM
TGI [32]: > 20.1 µM
TGI [33]: > 43.9 µM
TGI [34]: > 30.6 µM
TGI [35]: > 100 µM
TGI [36]: > 100 µM
TGI [37]: > 29.4 µM
TGI [38]: > 46.2 µM
TGI [39]: > 93.9 µM
TGI [40]: > 100 µM
TGI [41]: > 100 µM
TGI [42]: > 100 µM
TGI [43]: > 100 µM
TGI [44]: 16.5 µM
TGI [45]: > 100 µM
TGI [46]: > 100 µM
TGI [47]: > 100 µM
TGI [49]: > 21.9 µM
TGI [50]: > 100 µM
TGI [52]: > 50.2 µM
TGI [53]: > 100 µM
TGI [54]: > 100 µM
TGI [55]: > 100 µM
TGI [56]: > 80 µM
